Experimental data from PubChem BioAssay AID624491 (Broad Institute, 2012).
The source made the active and inactive calls.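 Rule for the calls: active = fitted curve crossing a set activation limit at or below the highest valid dose tested; inconclusive = flat fit at 30 to 70% activation, or poor fit; inactive = the rest, including signal decreases.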

Tested on: D54 ERlucT glycosylation luciferase reporter, luminescence, 24 h
Experiment: N-linked glycosylation inhibitors, luciferase reporter, dose response, D54 ERlucT cells, luminescence, cherry-picks (AID 624491);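 note: signal gain reflects blocked N-linked glycosylation of a luciferase reporter; actives raise luciferase signal so AC26 marks activators of the reporter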

COCCCNc1nnc(Cc2ccc(Cl)cc2)c(=O)[nH]1
AC26: 1050 nM

C=CCn1cccc(/C=C/C(=O)c2ccc(C(C)(C)C)cc2)c1=S
AC26: 1290 nM

COCCOC(=O)c1[nH]c2c(c1C)C(=O)CC(c1ccco1)C2 (stereo not given)
AC26: 3540 nM

COc1ccc(NC(=O)C2(C)Cc3c(-c4cccc(C(N)=O)c4)ccnc3O2)cc1 (stereo not given)
AC26: 2320 nM

COc1cccc(C(NC(C)=O)c2nc(-c3ccccc3C)cs2)c1 (stereo not given)
AC26: 774 nM

CN(C)CCCNc1c2c(nc3ccccc13)CCC2
AC26: 9560 nM

N=c1c(S(=O)(=O)c2ccc(Cl)cc2)cc2c(=O)n3ccccc3nc2n1CCc1ccccc1
AC26: 122 nM

c1ccc(-c2nc(-n3ccnc3)nc(-n3ccnc3)n2)cc1
AC26: 2780 nM

Cc1ccc(C(=O)Nc2ccccc2C(=O)N2CC(C)OC(C)C2)cc1 (stereo not given)
AC26: 1330 nM

CCOC(=O)c1c(C)nc2c(c1-c1cc(OC)c(OC)c(OC)c1)C(=O)c1ccccc1-2
AC26: 1560 nM

COc1cc2c(cc1OC)-c1c3c(cc4c1[C@@H](C2)N(C)CC4)OCO3
AC26: 17600 nM

c1ccc2cc3c(NCCN4CCOCC4)ccnc3cc2c1
AC26: 515 nM

COc1ccc(-c2ccc(C(c3c(C)[nH][nH]c3=O)c3c(C)[nH][nH]c3=O)o2)c([N+](=O)[O-])c1
AC26: 224 nM

CSc1cccc(NC(=O)CCCOc2cc(=O)n(C)c3ccccc23)c1
AC26: 4940 nM

COc1ccc(/C(C)=N/NC(=O)c2ccccc2OCc2ccccc2)c(OC)c1
AC26: 121 nM

COc1ccc(S(=O)(=O)NCc2ccccn2)cc1NC(=O)c1ccccc1F
AC26: 1200 nM

Cn1cnc([N+](=O)[O-])c1S(=O)(=O)c1cccc(Cl)c1
AC26: 1200 nM

Cc1ccc(NC(=O)c2cc(S(=O)(=O)N(C)C)ccc2N2CCCC2)cc1S(=O)(=O)N(C)C
AC26: 276 nM

COc1ccccc1N1CC(O)=C(c2nc3ccccc3c(=O)[nH]2)C1=N
AC26: 1320 nM

c1ccc(Cc2nnc(Sc3ccccc3)c3ccccc23)cc1
AC26: 5170 nM

Clc1cccc(N2Cc3cc(-c4ccccc4)ccc3-n3nncc3C2)c1
AC26: 3580 nM

COc1ccc2c(c1)C(=O)N1[C@H]3c4cc(OC)ccc4OC[C@@H]3[C@H](c3ccccc3)[C@]1(C)C(=O)N2
AC26: 197 nM

Cc1nc(Nc2nc(-c3ccccc3)cc(=O)[nH]2)nc2ccccc12
AC26: 1690 nM

Cc1cc(C(=O)N/N=C/c2c3ccccc3cc3ccccc23)n[nH]1
AC26: 6680 nM

COCCOC(=O)c1[nH]c2c(c1C)C(=O)CC(c1cccs1)C2 (stereo not given)
AC26: 1380 nM

C=CCOc1ccc(C(=O)Nc2ccccc2C(=O)NCc2cccnc2)cc1
AC26: 2160 nM

COc1ccc(C(=O)CC(SCC(NC(C)=O)C(=O)O)c2ccc(Cl)cc2)cc1OC (stereo not given)
AC26: 1440 nM

CCn1c(=O)c2cc(C(=O)NCCCOC)sc2c2ccccc21
AC26: 2460 nM

COc1cccc(C2=NOC(C(=O)NCc3ccc(F)cc3)C2)c1 (stereo not given)
AC26: 1160 nM

C=C1c2nc3ccccc3n2C=C(c2ccc(C)cc2)N1c1ccccc1
AC26: 9580 nM

Oc1cc(NCc2ccc(Cl)cc2)cc2cccnc12
AC26: 6410 nM

CCC(=NCCc1c(C)[nH]c2ccc(OC(F)(F)F)cc12)C1=C(O)CC(c2ccccc2)CC1=O (stereo not given)
AC26: 817 nM

COc1cc(/C=N/NC(=O)c2cc(-c3cccn3C)n[nH]2)cc(OC)c1OC
AC26: 1730 nM

CCN(CC)CCNC(=O)c1cc2c(-c3ccc(Cl)cc3)nn(C)c2s1
AC26: 3330 nM

COc1ccc(OC)c(Nc2ncnc3c2cnn3-c2cccc(C)c2)c1
AC26: 3240 nM

COc1ccc([C@@H]2[C@@H]3C(=O)N(C(C)(C)C)C(=O)[C@@H]3[C@]3(Cc4ccccc4)C(=O)N(c4cccc(C)c4)C(=O)N23)cc1
AC26: 1300 nM

CCOc1ccc(S(=O)(=O)NCc2cccnc2)cc1NC(=O)c1ccccc1F
AC26: 9740 nM

O=C(NCc1cccs1)C1Cc2c(-c3ccc(Cl)cc3)ccnc2O1 (stereo not given)
AC26: 1670 nM

Cc1cccn2c(=O)c3cc(C(=O)NC4CCCC4)c(=N)n(CCc4ccccc4)c3nc12
AC26: 1280 nM

CNC(=O)c1cccn(Cc2ccc(C(F)(F)F)cc2)c1=O
AC26: 3370 nM

Cc1noc2ncnc(Sc3ccc(Br)cc3)c12
AC26: 4470 nM

CCNc1oc(/C=C/c2ccc(OCC)cc2)nc1C#N
AC26: > 19500 nM (inactive)

Cc1c(C(=O)C(=O)N2c3ccc(F)cc3CCC2C)c2ccccc2n1C (stereo not given)
AC26: 5780 nM

CCN(CC)CCCNc1cc(C)c(C#N)c2nc3ccccc3n12
AC26: 17000 nM

O=C(N/N=C/c1ccccc1)c1sccc1OCc1ccc(F)cc1
AC26: 2600 nM

COc1ccc(CNC(=O)c2cccc3c(-c4cnn(C)c4)coc23)cc1OC
AC26: 3960 nM

CCNc1ccc(C(=O)OCC)cc1NC(=O)c1cccc(N(C)C)c1
AC26: 3160 nM

COc1ccccc1N=CC1=C(O)CC(c2ccccc2)CC1=O (stereo not given)
AC26: 2740 nM

COc1ccc(Nc2c3ccccc3nc3ccccc23)cc1
AC26: 1020 nM

COC(=O)COc1cccc2c(=O)n(CC(=O)NCc3ccccc3)ccc12
AC26: 1250 nM

Cc1cc(C)c2nc3nc(C)cc(C)c3c(N)c2c1
AC26: 145 nM

COc1cc(C)c2sc3ccccc3c(=O)c2c1NCCN(C)C
AC26: 468 nM

O=C(CSc1nnc(-c2cc3ccccc3cc2O)n1Cc1ccco1)N1CCc2ccccc2C1
AC26: 702 nM

O=C(N/N=C/c1c(-c2ccccc2)[nH]c2ccccc12)c1cccnc1
AC26: 117 nM

Cc1[nH]nc2c1C(c1cccc(O)c1)C1=C(CC(C)(C)CC1=O)N2 (stereo not given)
AC26: 1870 nM

NC(=O)c1cccc(-c2coc3c(C(=O)NCc4ccccc4)cccc23)c1
AC26: 4070 nM

C=CCn1c(O)c(C(CC)=NC(C)c2ccccc2)c(=O)[nH]c1=O (stereo not given)
AC26: 3140 nM

c1cnc2nc3c4ccccc4c4ccccc4c3nc2c1
AC26: 10200 nM

Cc1cccn2c(=O)c3cc(C(=O)NC4CCCC4)c(=N)n(CC4CCCO4)c3nc12 (stereo not given)
AC26: 8180 nM

Cn1nc(-c2ccc(Cl)cc2)c2cc(C(=O)NCCCN3CCOCC3)sc21
AC26: 4330 nM

CC(=O)O[C@H]1C(=O)[C@@]2(C)C([C@H](OC(=O)c3ccccc3)[C@]3(O)C[C@H](O)C(C)=C1C3(C)C)[C@]1(OC(C)=O)CO[C@@H]1C[C@H]2O (stereo not given in full)
AC26: 6460 nM

CCc1cccc(NC(=O)c2cc(S(=O)(=O)N(C)C)ccc2N2CCCC2)c1
AC26: 646 nM

O=C(NCc1ccc(F)c(F)c1)C1Cc2c(-c3ccc4c(c3)OCO4)ccnc2O1 (stereo not given)
AC26: 2750 nM

CC(=O)Nc1sc(C)c(C)c1C(=O)OCC(=O)Nc1ccccc1
AC26: 4780 nM

CC(=O)n1cc(/C=N/NC(=O)c2sc(C)nc2C)c2ccccc21
AC26: 10000 nM

O=C(C=Cc1ccccc1O)c1ccccc1O
AC26: 2850 nM

CC=Cc1cc2c(c(=O)o1)C(=O)C(O)C(C)O2 (stereo not given)
AC26: 5300 nM

CCCCOc1ccccc1C1CC(=O)NC2=C1C(=O)CCC2 (stereo not given)
AC26: 1320 nM

Cc1ccc2c(c1)cc(CN(C(=O)N1CCOCC1)C1CCCC1)c1nnnn12
AC26: 4120 nM

O=C(CCl)Nc1cn(-c2ccccc2)nc1-c1ccc(F)cc1
AC26: 3860 nM

CCOc1ccc2[nH]c(C(=O)N/N=C/c3cc(OC)c(OC)c(OC)c3)cc2c1
AC26: 1320 nM

CNC(=O)c1cccn(Cc2cc(C(F)(F)F)cc(C(F)(F)F)c2)c1=O
AC26: 16000 nM

CCOc1ccc(/C=C2\SC(N3CCCCC3)=NC2=O)cc1
AC26: 1100 nM

CC(C)c1c(C(=O)Nc2ccccc2)c(-c2ccccc2)c(-c2ccc(F)cc2)n1CC[C@@H](O)C[C@@H](O)CC(=O)O
AC26: 68.2 nM

CC(=O)Nc1cccc(NC(=O)c2ccccc2OCc2ccccc2)c1
AC26: 1350 nM

CN1CCN(C(=O)/C=C/c2ccc([N+](=O)[O-])o2)CC1
AC26: 3930 nM

Cn1c(=O)n(C)c2cc(NS(=O)(=O)c3ccc(F)cc3)ccc21
AC26: 5290 nM

COc1ccc(C2C(C(=O)Nc3cc(OC)c(OC)c(OC)c3)c3ccccc3C(=O)N2C)cc1 (stereo not given)
AC26: 5180 nM

O=C(Nc1ncccc1O)c1ccc(S(=O)(=O)Nc2ccccc2)cc1
AC26: 2190 nM

CC(=O)c1sc(Nc2cccc3ccccc23)nc1C
AC26: 6110 nM

COc1ccc(C(=O)Nc2sc(C)c(C)c2CN2CC(C)OC(C)C2)cc1 (stereo not given)
AC26: 659 nM

COC(=O)C(=Cc1ccc(-c2ccsc2C(=O)OC)o1)C(=O)OC
AC26: 9800 nM

CC(=O)NC(=C(Cl)Cl)S(=O)(=O)c1ccccc1
AC26: 1080 nM

COc1cccc(-c2nc(N3CCN(C)CC3)c3ccccc3n2)c1O
AC26: 3610 nM

C=CCN=C(SCC(=O)c1ccc(Cl)cc1)c1c(O)n(C)c(=O)n(C)c1=O
AC26: 2340 nM

Nc1c(N(Cc2ccccc2)C(=O)COc2ccc([N+](=O)[O-])cc2)c(=O)[nH]c(=O)n1Cc1ccccc1
AC26: 389 nM

O=C(CCl)Nc1ccc(Sc2ccc(NC(=O)CCl)cc2)cc1
AC26: 667 nM

O=C(Nc1ccc(Cc2ccncc2)cc1)c1ccc([N+](=O)[O-])o1
AC26: 1150 nM

Oc1ccc(CCNc2c3ccccc3nc3ccccc23)cc1O
AC26: 638 nM

c1ccc2sc(Sc3ncnc4sccc34)nc2c1
AC26: 1480 nM

COc1ccc2cc(C)c3nnc(SCC(=O)Nc4nc(-c5ccc(F)cc5)cs4)n3c2c1
AC26: 2360 nM

CN1CCN(C(c2ccc(Br)cc2)c2cc(Cl)c3cccnc3c2O)CC1 (stereo not given)
AC26: 1810 nM

COc1ccc2c(c1)[C@H]1[C@H](CO2)[C@H](c2ccccc2)[C@]2(C)C(=O)Nc3cc(F)c(F)cc3C(=O)N12
AC26: 544 nM

COc1cc(-c2cc3nc(NCCOc4ccccc4)ccn3n2)cc(OC)c1OC
AC26: 2350 nM

COc1cc(C(=O)Nc2ccc3c(c2)nc(C)n3C)cc(OC)c1OC
AC26: 2690 nM

COc1ccccc1NC(=O)/C=C/c1ccc2c(c1)OCO2
AC26: 3780 nM

CNc1ccc(/C=C/C(=O)c2cccc3ccccc23)cc1[N+](=O)[O-]
AC26: 2810 nM

CCc1nn2c(N(C)CCO)cc(C)nc2c1-c1ccc(F)cc1
AC26: 12800 nM

Cc1[nH]c2ccc(C(=O)N3CCN(c4cccc(Cl)c4)CC3)cc2c1C
AC26: 8650 nM

NC(=O)CC(NC(=O)Cc1ccc(Br)cc1)c1ccc(NC2CC3CCC2C3)c([N+](=O)[O-])c1 (stereo not given)
AC26: 32.6 nM

CCN(CC)CCCNc1nc2ccccc2c2nc(-c3ccncc3)nn12
AC26: 2320 nM

Cc1c(C(=O)OCC(C)C)[nH]c2c1C(=O)CC(c1cccs1)C2 (stereo not given)
AC26: 1170 nM

Cc1nnc2c(NC3CCCC3)nc3ccccc3n12
AC26: 5060 nM

CCN(CC)S(=O)(=O)c1cc(NC(=O)Cn2ncc(Cl)c(Cl)c2=O)ccc1C
AC26: 1030 nM

c1ccc(CNc2ncnc3c2cnn3-c2ccccc2)cc1
AC26: 8130 nM

CCc1ccc(N2C(=O)NC(=O)/C(=C\C=C\c3ccco3)C2=O)cc1
AC26: 1280 nM

COc1cc(C2C(C#N)=C(N)Oc3cc(O)ccc32)cc(OC)c1OC (stereo not given)
AC26: 1020 nM

COc1cc(-c2cc(OC)c(O)c(OC)c2)cc(OC)c1O
AC26: 3600 nM

COc1cc2nc(N(C)C)nc(N)c2cc1OC
AC26: 3660 nM

Cc1cccc(N2CCN(C(=O)c3cc(S(=O)(=O)N4CCCC4)cn3C)CC2)c1C
AC26: 2050 nM
